Experimental data published in patent US20240018161A1, “MODULATORS OF CYSTIC FIBROSIS TRANSMEMBRANE CONDUCTANCE REGULATOR” (VERTEX PHARMACEUTICALS INCORPORATED, priority 2020, published 2024).

target: T1, CFTR-mediated short-circuit current in F508del/MF-HBE cells (Homo sapiens, UniProt P13569, DEL508-508); experiment: HBE2 assay: Ussing chamber assay of CFTR-mediated short-circuit currents; assay type: cell-based
T1 construct: human bronchial epithelial (HBE) cells derived from CF subjects; endogenous in cells; host or cells: primary human bronchial epithelial cells from CF subjects (F508del/MF-HBE)
T1 sequence (P13569 with tags, fused parts or gaps DEL508-508): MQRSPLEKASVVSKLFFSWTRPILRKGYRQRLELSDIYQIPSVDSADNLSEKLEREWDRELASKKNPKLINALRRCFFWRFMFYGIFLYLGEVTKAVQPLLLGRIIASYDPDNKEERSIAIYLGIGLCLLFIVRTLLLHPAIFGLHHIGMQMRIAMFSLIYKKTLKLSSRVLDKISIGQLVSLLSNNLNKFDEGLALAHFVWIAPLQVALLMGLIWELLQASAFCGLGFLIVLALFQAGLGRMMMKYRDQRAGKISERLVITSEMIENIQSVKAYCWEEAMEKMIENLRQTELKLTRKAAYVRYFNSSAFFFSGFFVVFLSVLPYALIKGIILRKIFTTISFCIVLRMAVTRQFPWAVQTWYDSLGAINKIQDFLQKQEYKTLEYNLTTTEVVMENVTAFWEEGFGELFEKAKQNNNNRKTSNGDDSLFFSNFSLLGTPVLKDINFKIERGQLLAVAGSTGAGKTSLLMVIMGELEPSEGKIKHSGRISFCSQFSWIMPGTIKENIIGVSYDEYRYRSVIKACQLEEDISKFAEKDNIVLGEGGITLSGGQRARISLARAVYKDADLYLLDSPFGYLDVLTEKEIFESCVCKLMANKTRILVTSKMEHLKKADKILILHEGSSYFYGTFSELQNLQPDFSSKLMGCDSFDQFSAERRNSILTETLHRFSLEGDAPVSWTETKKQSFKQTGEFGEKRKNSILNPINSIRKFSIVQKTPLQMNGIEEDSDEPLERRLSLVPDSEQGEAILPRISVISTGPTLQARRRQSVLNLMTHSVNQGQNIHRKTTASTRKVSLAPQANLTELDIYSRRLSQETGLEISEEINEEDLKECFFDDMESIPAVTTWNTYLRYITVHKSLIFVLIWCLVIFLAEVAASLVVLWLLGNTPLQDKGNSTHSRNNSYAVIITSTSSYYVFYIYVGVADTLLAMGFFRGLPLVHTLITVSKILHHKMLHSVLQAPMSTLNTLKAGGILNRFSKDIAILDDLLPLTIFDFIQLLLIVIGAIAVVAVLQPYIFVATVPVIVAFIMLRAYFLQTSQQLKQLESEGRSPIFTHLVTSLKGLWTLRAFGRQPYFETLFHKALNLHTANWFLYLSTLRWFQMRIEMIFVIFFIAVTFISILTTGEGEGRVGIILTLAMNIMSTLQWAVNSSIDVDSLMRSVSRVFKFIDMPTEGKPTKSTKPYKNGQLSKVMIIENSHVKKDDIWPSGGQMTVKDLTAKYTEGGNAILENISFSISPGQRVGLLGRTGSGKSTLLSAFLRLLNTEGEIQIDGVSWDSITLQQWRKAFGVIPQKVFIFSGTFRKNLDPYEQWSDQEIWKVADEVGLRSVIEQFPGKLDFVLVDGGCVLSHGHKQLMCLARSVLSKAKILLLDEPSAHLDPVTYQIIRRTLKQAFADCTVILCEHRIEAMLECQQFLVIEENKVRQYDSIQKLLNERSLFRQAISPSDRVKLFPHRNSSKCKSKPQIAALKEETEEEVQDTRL
Method: 1. Ussing Chamber Assay of CFTR-Mediated Short-Circuit Currents
Ussing chamber experiments were performed using human bronchial epithelial (HBE) cells derived from CF subjects heterozygous for F508del and a minimal function CFTR mutation (F508del/MF-HBE) and cultured as previously described (Neuberger T, Burton B, Clark H, Van Goor F Methods Mol Biol 2011:741:39-54). After four days the apical media was removed, and the cells were grown at an air liquid interface for >14 days prior to use.
To isolate the CFTR-mediated short-circuit (ISC) current, F508del/MF-HBE grown on Costar® Snapwell™ cell culture inserts were mounted in an Ussing chamber and the transepithelial ISC was measured under voltage-clamp recording conditions (Vhold=0 mV) at 37° C. The basolateral solution contained (in mM) 145 NaCl, 0.83 K2HPO4, 3.3 KH2PO4, 1.2 MgCl2, 1.2 CaCl2, 10 Glucose, 10 HEPES (pH adjusted to 7.4 with NaOH) and the apical solution contained (in mM) 145 NaGluconate, 1.2 MgCl2, 1.2 CaCl2, 10 glucose, 10 HEPES (pH adjusted to 7.4 with NaOH) and 30 μM amiloride to block the epithelial sodium channel. Forskolin (20 μM) was added to the apical surface to activate CFTR, followed by apical addition of a CFTR inhibitor cocktail consisting of BPO, GlyH-101, and CFTR inhibitor 172 (each at 20 μM final assay concentration) to specifically isolate CFTR currents. The CFTR-mediated ISC (μA/cm^2) for each condition was determined from the peak forskolin response to the steady-state current following inhibition.
2. Identification of Corrector Compounds
The activity of the CFTR corrector compounds on the CFTR-mediated ISC was determined in Ussing chamber studies as described above. The F508del/MF-HBE cell cultures were either incubated with the corrector compounds at a range of concentrations in combination with 44 nM (6R,12R)-17-amino-12-methyl-6,15-bis(trifluoromethyl)-13,19-dioxa-3,4,18-triazatricyclo[12.3.1.12,5]nonadeca-1(18),2,4,14,16-pentaen-6-ol or were incubated with the corrector compounds at a single fixed concentration of 1 and 3 μM in combination with 44 nM (6R,12R)-17-amino-12-methyl-6,15-bis(trifluoromethyl)-13,19-dioxa-3,4,18-triazatricyclo[12.3.1.12,5]nonadeca-1(18),2,4,14,16-pentaen-6-ol for 18-24 hours at 37° C. and in the presence of […]. The concentration of corrector compounds with 44 nM (6R,12R)-17-amino-12-methyl-6,15-bis(trifluoromethyl)-13,19-dioxa-3,4,18-triazatricyclo[12.3.1.12,5]nonadeca-1(18),2,4,14,16-pentaen-6-ol during the 18-24 hours incubations was kept constant throughout the Ussing chamber measurement of the CFTR-mediated ISC to ensure compounds were present throughout the entire experiment.

**Q.** How did the “HBE2 Activity at 3 μM (%)” value turn out when Cc1cccc(C)c1-c1cc2nc(n1)NS(=O)(=O)c1cccc(c1)C(=O)N1[C@@H](c3ncc(OC(C)C)cn3)CCC[C@@H](CC(C)C)[C@H]1CO2 (single isomer, unassigned) [Compound 394, 14-(2,6-Dimethylphenyl)-8-isobutyl-4-(5-isopropoxypyrimidin-2-yl)-18,18-dioxo-11-oxa-18λ^6-thia-3,15,17,24-tetrazatetracyclo[17.3.1.112,16.03,9]tetracosa-1(22),12,14,16(24),19(23),20-hexaen-2-one] was run?
**A.** The value was “+++ (+++ is >60%)”.

**Q.** With Cc1cccc(C)c1-c1cc2nc(n1)NS(=O)(=O)c1cccc(c1)C(=O)N1[C@@H](c3ncc(OC(C)C)cn3)CCC[C@@H](CC(C)C)[C@H]1CO2 (single isomer, unassigned) [Compound 395, 14-(2,6-dimethylphenyl)-8-isobutyl-4-(5-isopropoxypyrimidin-2-yl)-18,18-dioxo-11-oxa-18λ^6-thia-3,15,17,24-tetrazatetracyclo[17.3.1.112,16.03,9]tetracosa-1(22),12,14,16(24),19(23),20-hexaen-2-one] as the molecule, how does the “HBE2 Activity at 3 μM (%)” value read?
**A.** The value was “++ (++ is 30-60%)”.

**Q.** With Cc1cccc(C)c1-c1cc2nc(n1)NS(=O)(=O)c1cccc(c1)C(=O)N1[C@@H](c3ncc(OC(C)C)cn3)CCC[C@@H](CC(C)C)[C@H]1CO2 (single isomer, unassigned) [Compound 396, 14-(2,6-Dimethylphenyl)-8-isobutyl-4-(5-isopropoxypyrimidin-2-yl)-18,18-dioxo-11-oxa-18λ^6-thia-3,15,17,24-tetrazatetracyclo[17.3.1.112,16.03,9]tetracosa-1(22),12,14,16(24),19(23),20-hexaen-2-one] as the molecule, how does the “HBE2 Activity at 3 μM (%)” value read?
**A.** Its value is “+ (+ is <30+)”.

**Q.** With Cc1cccc(C)c1-c1cc2nc(n1)NS(=O)(=O)c1cccc(c1)C(=O)N1[C@@H](c3ncc(OC(C)C)cn3)CCC[C@@H](CC(C)C)[C@H]1CO2 (single isomer, unassigned) [Compound 397, 14-(2,6-dimethylphenyl)-8-isobutyl-4-(5-isopropoxypyrimidin-2-yl)-18,18-dioxo-11-oxa-18λ^6-thia-3,15,17,24-tetrazatetracyclo[17.3.1.112,16.03,9]tetracosa-1(22),12,14,16(24),19(23),20-hexaen-2-one] as the molecule, how does the “HBE2 Activity at 3 μM (%)” value read?
**A.** The value was “+++ (+++ is >60%)”.

**Q.** Which “HBE2 Activity at 3 μM (%)” value does the source give for Cc1cccc(C)c1-c1cc2nc(n1)NS(=O)(=O)c1cccc(c1)C(=O)N1[C@@H](c3ncc(OC(C)C)cn3)CCC[C@@H](CC(C)C)[C@H]1CO2 (single isomer, unassigned) [Compound 398, 14-(2,6-Dimethylphenyl)-8-isobutyl-4-(5-isopropoxypyrimidin-2-yl)-18,18-dioxo-11-oxa-18λ^6-thia-3,15,17,24-tetrazatetracyclo[17.3.1.112,16.03,9]tetracosa-1(22),12,14,16(24),19(23),20-hexaen-2-one] here?
**A.** The value was “+++ (+++ is >60%)”.

**Q.** Which “HBE2 Activity at 3 μM (%)” value does the source give for Cc1cccc(C)c1-c1cc2nc(n1)NS(=O)(=O)c1cccc(c1)C(=O)N1[C@@H](c3ncc(OC(C)C)cn3)CCC[C@@H](CC(C)C)[C@H]1CO2 (single isomer, unassigned) [Compound 399, 14-(2,6-dimethylphenyl)-8-isobutyl-4-(5-isopropoxypyrimidin-2-yl)-18,18-dioxo-11-oxa-18λ^6-thia-3,15,17,24-tetrazatetracyclo[17.3.1.112,16.03,9]tetracosa-1(22),12,14,16(24),19(23),20-hexaen-2-one] here?
**A.** The value was “+ (+ is <30+)”.

**Q.** With Cc1cccc(C)c1-c1cc2nc(n1)NS(=O)(=O)c1cccc(c1)C(=O)N1[C@@H](c3cncc(N(C)C4CCC4)n3)CCC[C@@H](CC(C)C)[C@H]1CO2 (single isomer, unassigned) [Compound 400, 4-[6-[Cyclobutyl(methyl)amino]pyrazin-2-yl]-14-(2,6-dimethylphenyl)-8-isobutyl-18,18-dioxo-11-oxa-18λ^6-thia-3,15,17,24-tetrazatetracyclo[17.3.1.112,16.03,9]tetracosa-1(22),12,14,16(24),19(23),20-hexaen-2-one] as the molecule, how does the “HBE2 Activity at 3 μM (%)” value read?
**A.** Its value is “+++ (+++ is >60%)”.
